# Patent US4551547A, “Biocidal 2-aryl-1, 3-cyclopentanedione enol ester compounds” (Union Carbide Corporation, priority 1983, dated 1985)
# Assays:
# [1] = tested on: Red root pigweed (Amaranthus); assay: Preliminary herbicide seed germination test (pre-emergent), red root pigweed; type: in vivo, Amaranthus retroflexus; design: key: 5: no seedling emerged; 4: few seedlings emerged and/or very severe stunting; 3: moderate reduction in stand and/or moderate stunting.; 2: very slight reduction in stand and/or slight stunting; 1: no injury, seedlings appear no different with respect to stand or growth than untreated controls; settings: ten to twelve days after application
# Protocol: (§1) Suspensions of the test compounds were prepared by dissolving one gram of compound in 50 milliliters of acetone in which had been dissolved 0.1 gram (10 percent of the weight of compound) of an alkylphenoxyethanol sufactant, as an emulsifying or dispersing agent. The resulting solution was mixed into 160 milliliters of water to give roughly 200 milliliters of a suspension containing the compound in finely divided form. The thus prepared stock suspension contained 0.5 percent by weight of compound. The test concentrations employed in the tests described below were obtained by diluting the stock suspension with water. The test procedures were as follows:
# (§2) The following seeds were used in this test:
# Red root pigweed--Amaranthus retroflexus
# (§3) Two […] mixtures were prepared as follows:
# (§4) Each of the above mixtures was rolled separately in 5 gallon containers for approximately one-half hour on ball mill to insure uniform mixing of seeds and soil. For each compound four 3-inch pots were filled with soil to within 11/2 inches of top of pots. To two of these pots were added 70 cc. of Mixture I. To the remaining 2 pots were added 70 cc. of Mixture II. The seed-soil mixture was tamped firmly, and the pots were removed to the greenhouse and watered lightly. About 2 hours after planting, 25 milliliters of the test formulation were added to one pot containing Mixture I and one pot containing Mixture II. An equal volume of a water solution containing acetone and an emulsifier in the same concentration as the herbicidal mixture but without the candidate herbicide was also added to each of the soil-seed mixtures. These pots are used as check or control units. The test compounds were formulated by diluting the stock suspension with water to obtain the desired concentration of the compound in parts per million of the final formulation. Each compound was tested at the same concentration. […] Ratings were made according to the following designations: […]
# Soybean = assay: Post-emergent herbicidal test, soybean; type: in vivo; design: key: 1: no perceptible injury; 2: intermediate degrees of injury; 3: intermediate degrees of injury; 4: intermediate degrees of injury; 5: the plant was dead; settings: 2500 parts per million, after ten days; for Post-emergent Herbicidal, Soybean: Table II; for Post Emergent Herbicidal, Soybean: Table III
# Protocol: as §1
# (§5) Experiments were also conducted to determine the phytotoxicity of representative compositions with respect to healthy fresh plants. Solutions of the compounds were prepared as described above to provide a concentration of 2500 parts per million of the test compound. The test plants were sprayed in accordance with the procedure described above for the Mite Foliage Spray Test so as to deliver approximately 100 milliliters of test solutions to the leaves of each plant tested. The sprayed plants and controls were set aside for approximately one hour to allow the solutions to dry and were then placed in the greenhouse. After ten days the plants were visually inspected to determine the extent of foliage injury. A rating of 1 indicates no perceptible injury; 5 indicates the plant was dead and ratings of 2, 3 and 4 indicate intermediate degrees of injury based upon the number and extent to which leaves were injured.
# Mustard = assay: Preliminary herbicide seed germination test (pre-emergent), mustard; type: in vivo, Brassica pincea var. foliosa (Florida broadleaf); design: key: 5: no seedling emerged; 4: few seedlings emerged and/or very severe stunting; 3: moderate reduction in stand and/or moderate stunting.; 2: very slight reduction in stand and/or slight stunting; 1: no injury, seedlings appear no different with respect to stand or growth than untreated controls; settings: ten to twelve days after application
# Protocol: as §1, §2
# Mustard--Brassica pincea var. foliosa (Florida broadleaf)
# as §3, §4
# [2] = tested on: egg of the two-spotted mite; assay: Mite Ovicide Test (eggs); type: in vivo, Tetranychus urticae (Koch); design: key to Miticidal, Egg: A: Excellent Control; B: Partial Control; No Control; settings: for Miticidal, Egg: Table II, unhatched eggs after four days; for LC50: Tetranychus urticae, Table III, ppm required for a 50 percent kill of eggs, read-out: Miticidal LD50, Egg
# Protocol: Suspensions of the test compounds were prepared by dissolving one gram of compound in 50 milliliters of acetone in which had been dissolved 0.1 gram (10 percent of the weight of compound) of an alkylphenoxyethanol sufactant, as an emulsifying or dispersing agent. The resulting solution was mixed into 160 milliliters of water to give roughly 200 milliliters of a suspension containing the compound in finely divided form. The thus prepared stock suspension contained 0.5 percent by weight of compound. The test concentrations employed in the tests described below were obtained by diluting the stock suspension with water. The test procedures were as follows: The test organism was the egg of the two-spotted mite (Tetranychus urticae (Koch)), as obtained from adults reared on […] bean plants under controlled conditions of 80±5° F. and 50±5 percent relative humidity. Heavily infested leaves from a stock culture were placed on the primary leaves of two bean plants six to eight inches in height growing in a two-and-a-half inch clay pot. Females were allowed to oviposit for a period of 48 hours and the leaves of the infested plants were dipped in a solution containing 800 parts of tetraethyl pyrophosphate per million parts of water in order to destroy the reproductory forms and thus prevent further egg laying. […] The plants were allowed to dry thoroughly. The test compounds were formulated by diluting the stock suspension with water to give a suspension containing varying amounts of test compound per million parts of final formulation. The potted plants (one pot per compound) were placed on a revolving turntable and sprayed with 100-110 milliliters of test compound formulation by use of a DeVilbis spray gun set at 40 spig. air pressure. This application which lasted 30 seconds, was sufficient to wet the plants to run-off. As a control, 100-110 milliliters of a water solution containing acetone and emulsifier in the same concentrations as the test compound formulation, but containing no test compound, were also sprayed on plants infested with eggs. The sprayed plants were held at 80±5° F. and 50±5 percent relative humidity for four days, after which a microscopic examination was made of unhatched (dead) and hatched (living) eggs. In these tests the pesticidal activity of the compounds against mites and mite eggs was rated as follows: Tests were conducted in accordance with the procedures given at pages 17 to 21 supra. The results are expressed in the same manner as used in Table II, except with respect to miticidal activity. For mite adult and mite egg comparison purposes, results are given in parts per million (ppm) required for a 50 percent kill of mites or eggs, respectively.
# Corn = assay: Post-emergent herbicidal test, corn; type: in vivo; design: key: 1: no perceptible injury; 2: intermediate degrees of injury; 3: intermediate degrees of injury; 4: intermediate degrees of injury; 5: the plant was dead; settings: 2500 parts per million, after ten days; for Post-emergent Herbicidal, Corn: Table II; for Post Emergent Herbicidal, Corn: Table III
# Protocol: as §1, §5
# Tomato = assay: Post-emergent herbicidal test, tomato; type: in vivo; design: key: 1: no perceptible injury; 2: intermediate degrees of injury; 3: intermediate degrees of injury; 4: intermediate degrees of injury; 5: the plant was dead; settings: 2500 parts per million, after ten days; for Post-emergent Herbicidal, Tomato: Table II; for Post Emergent Herbicidal, Tomato: Table III
# Protocol: as §1, §5
SMILES,"Pre-emergent Herbicidal, Amaranthus ([1]; Table II)","Post-emergent Herbicidal, Soybean (Soybean)","Pre-emergent Herbicidal, Mustard (Mustard; Table II)","Miticidal, Egg [2]","Post-emergent Herbicidal, Corn (Corn)","Post-emergent Herbicidal, Tomato (Tomato)","Pre-emergent Herbicidal, Amaranthus ([1]; Table III)","Post Emergent Herbicidal, Soybean (Soybean)","Pre-emergent Herbicidal, Mustard (Mustard; Table III)",LC50 [2] [µg/mL],"Post Emergent Herbicidal, Corn (Corn)","Post Emergent Herbicidal, Tomato (Tomato)"
Cc1ccc(C)c(C2=C(OC(=O)C(C)C)C3CCCCC3C2=O)c1 (stereo not drawn) [Compound 29],1,2,1,A,2,1,–,–,–,–,–,–
CCCCCCCCCC(=O)OC1=C(c2cc(C)ccc2C)C(=O)C2CCCCC12 (stereo not drawn) [Compound 32],1,1,1,A,2,1,–,–,–,–,–,–
CCCCCCCCCCCCCCCC(=O)OC1=C(c2ccccc2C)C(=O)c2ccccc21 [reference compound],–,–,–,–,–,–,1,0,1,60,1,1
CCCCCCCCCC(=O)OC1=C(c2cc(C)ccc2C)C(=O)c2ccccc21 [reference compound],–,–,–,–,–,–,1,0,1,500,1,1
CCCCCCCCCCCCCCCC(=O)OC1=C(c2cc(C)ccc2C)C(=O)C(C)C1 (stereo not drawn) [Compound 18],1,2,1,A,3,2,–,–,–,–,–,–
CCCCC(CC)C(=O)OC1=C(c2ccccc2C)C(=O)C2CCCCC12 (stereo not drawn) [drawing 22],–,–,–,–,–,–,2,2,1,5,5,1
Cc1ccc(C2=C(OC(=O)c3ccccc3)CCC2=O)c(C)c1 [Compound 10],1,1,1,B,3,1,–,–,–,–,–,–
"Cc1ccc(C2=C(OC(=O)c3ccccc3)C3CCCCC3C2=O)c(C)c1 (stereo not drawn) [Compound 27, 3-benzoyloxy-2-(2',4'-dimethylphenyl)-4,5,6,7,8,9-hexahydro-2-indenone]",4,2,5,A,4,2,–,–,–,–,–,–
Cc1ccccc1C1=C(OC(=O)C(C)(C)C)C2CCCCC2C1=O (stereo not drawn) [Compound 22],2,3,3,A,5,1,–,–,–,–,–,–
CCCCC(CC)C(=O)OC1=C(c2cc(C)ccc2C)C(=O)CC1 (stereo not drawn) [Compound 13],1,3,1,A,2,2,–,–,–,–,–,–
CCCCC(CC)C(=O)OC1=C(c2ccccc2C)C(=O)CC1 (stereo not drawn) [drawing 21],–,–,–,–,–,–,3,2,1,125,2,2
CCCCC(CC)C(=O)OC1=C(c2ccccc2C)C(=O)CC1 (stereo not drawn) [Compound 7],3,2,1,A,2,2,–,–,–,–,–,–
CC(=O)OC1=C(c2ccc(Cl)cc2Cl)C(=O)CC1 [Compound 3],2,2,1,A,3,2,–,–,–,–,–,–
"CC(=O)OC1=C(c2ccccc2C)C(=O)C2CCCCC12 (stereo not drawn) [Compound 19, 3-acetoxy-2-(2'-methylphenyl)-4,5,6,7,8,9-hexahydro-2-indenone]",4,3,3,A,5,2,–,–,–,–,–,–
Cc1ccccc1C1=C(OC(=O)C(C)C)C2CCCCC2C1=O (stereo not drawn) [Compound 20],3,3,3,A,5,1,–,–,–,–,–,–
O=C1CCC(OC(=O)c2ccccc2)=C1c1ccccc1Cl [Compound 2],1,2,1,A,3,2,–,–,–,–,–,–
Cc1ccc(C)c(C2=C(OC(=O)C(C)C)CC(C)C2=O)c1 (stereo not drawn) [Compound 16],3,2,2,B,3,2,–,–,–,–,–,–
CCCCCCCCCCCCCCCC(=O)OC1=C(c2cc(C)ccc2C)C(=O)CC1 [Compound 14],1,3,1,A,1,3,–,–,–,–,–,–
CCCCCCCCCC(=O)OC1=C(c2ccccc2C)C(=O)C2CCCCC12 (stereo not drawn) [drawing 15],–,–,–,–,–,–,3,3,3,1,5,1
